Measurements published in patent US12377110B2, “Fospropofol methods and compositions” (Epalex Corporation, priority 2019, dated 2025).

Test: Linear regression of log fospropofol/propofol exposure (Cmax, AUC1, AUC2, AUC4) on time-to-treatment, migraine subjects vs healthy volunteers
Text: (§1) Values for healthy volunteers are shown on the left.
as §1
Values for healthy Volunteers are shown on the left.
as §1, §1, §1

CC(C)c1cccc(C(C)C)c1O [propofol, 2,6-diisopropylphenol]
p of inverse linear association between log of the ratio AUC1 propofol to AUC1 fospropofol and time-to-treatment (migraine subjects): 0.150
p of inverse linear association between log of the ratio AUC2 propofol to AUC2 fospropofol and time-to-treatment (migraine subjects): 0.157
p of difference in distribution of log of the ratio AUC1 propofol to AUC1 fospropofol between migraine subjects and healthy volunteers (migraine subjects vs healthy volunteers): 0.0367
